Experimental data: patent publication US12281057B2 (VERTEX PHARMACEUTICALS INCORPORATED, priority 2017, dated 2025)

Biological target: truncated form of human NaV 1.8 with full channel activity (Homo sapiens, UniProt Q9Y5Y9)
Assay: E-VIPR Assay Method B for detecting and measuring Nav inhibition (HEK cells, membrane potential FRET dyes, electrical stimulation)
Format: cell-based
Conditions: HEK cells expressing human NaV 1.8, Table 20B, read-out: Nav 1.8 MedChem Optical Assay EVIPR Assay Method B HS IC50
Description: [formula] where X is the ratio response of the test compound. […] E-VIPR Assay Method B for Detecting and Measuring Nav Inhibition Properties Sodium ion channels are voltage-dependent proteins that can be activated by inducing membrane voltage changes by applying electric fields. The electrical stimulation instrument and methods of use, referred to as E-VIPR, are described in International Publication No. WO 2002/008748 A3 and C.-J. Huang et al. Characterization of voltage-gated sodium channel blockers by electrical stimulation and fluorescence detection of membrane potential, 24 Nature Biotech. 439-46 (2006), both of which are incorporated by reference in their entirety. The instrument comprises a microtiter plate handler, an optical system for exciting the coumarin dye while simultaneously recording the coumarin and oxonol emissions, a waveform generator, a current- or voltage-controlled amplifier, and parallel electrode pairs that are inserted into assay plate wells. Under integrated computer control, this instrument passes user-programmed electrical stimulus protocols to cells within the wells of the microtiter plate. […] Sigma #F4135), 1% NEAA (Non-Essential Amino Acids, Life Tech #11140), 1% HEPES (Life Tech #15630), 1% Pen-Strep (Penicillin-Streptomycin; […] Cells were expanded in vented cap flasks, with 95% humidity and 5% CO2. Reagents and Stock Solutions: • 100 mg/mL Pluronic F-127 (Sigma #P2443), in dry DMSO • Compound Plates: […] 5% KIR 2.1 Bacmam virus (produced in-house), prepared as described in Section 3.3 of J. A. Fornwald et al., Gene Expression in Mammalian Cells Using BacMam, a Modified Baculovirus System, 1350 Methods in Molecular Biology 95-116 (2016), the entire contents of which are incorporated by reference. • 5 mM DiSBAC6(3) (a voltage sensitive oxonol acceptor) (Aurora #00-100-010) in dry DMSO • 5 mM CC2-DMPE (a membrane-bound coumarin phospholipid FRET donor) (Aurora #00-100-008) in dry DMSO • 89 mM VABSC-1 in H2O. […] The solution was made by adding 10% Pluronic F127 stock equal to combined volumes of CC2-DMPE and DiSBAC6(3). The order of preparation was first mix Pluronic and CC2-DMPE, then add DiSBAC6(3), then while vortexing add Bath1/β-Cyclodextrin. […] Assay Protocol: […] Final DMSO concentration for all wells in the assay was 0.625% (0.75% DMSO was supplemented to the Compound Loading Buffer for a final DMSO concentration of 0.625%). 2) Hexyl Dye Solution was prepared. 3) Cell plates were prepared. On the day of the assay, the media was aspirated, and the cells were washed three times with 80 μL of Bath-1 buffer, maintaining 25 μL residual volume in each well. 4) 25 μL per well of Hexyl Dye Solution was dispensed into the cell plates. The cells were incubated for 20 minutes at room temp or ambient conditions in darkness. 5) 80 μL per well of Compound Loading Buffer was dispensed into compound plates. […] The mixture was incubated for 30 minutes at room temp/ambient conditions. […] A pre-stimulus recording was performed for 0.5 seconds to obtain the un-stimulated intensities baseline. The stimulatory waveform was followed by 0.5 seconds of post-stimulation recording to examine the relaxation to the resting state. Data Analysis: Data were analyzed and reported as normalized ratios of emission intensities measured in the 460 nm and 580 nm channels. The response as a function of time was reported as the ratios obtained using the following formula: [formula] The data were further reduced by calculating the initial (Ri) and final (Rf) ratios. These were the average ratio values during part or all of the pre-stimulation period and during sample points during the stimulation period. The fluorescence ratio (Rf/Ri) was then calculated and reported as a function of time. Control responses were obtained by performing assays in the presence of the positive control, and in the absence of pharmacological agents (DMSO vehicle negative control). Responses to the negative (N) and positive (P) controls were calculated as above. […]

Sequence of truncated form of human NaV 1.8 with full channel activity (Q9Y5Y9 126-1722 limits assumed): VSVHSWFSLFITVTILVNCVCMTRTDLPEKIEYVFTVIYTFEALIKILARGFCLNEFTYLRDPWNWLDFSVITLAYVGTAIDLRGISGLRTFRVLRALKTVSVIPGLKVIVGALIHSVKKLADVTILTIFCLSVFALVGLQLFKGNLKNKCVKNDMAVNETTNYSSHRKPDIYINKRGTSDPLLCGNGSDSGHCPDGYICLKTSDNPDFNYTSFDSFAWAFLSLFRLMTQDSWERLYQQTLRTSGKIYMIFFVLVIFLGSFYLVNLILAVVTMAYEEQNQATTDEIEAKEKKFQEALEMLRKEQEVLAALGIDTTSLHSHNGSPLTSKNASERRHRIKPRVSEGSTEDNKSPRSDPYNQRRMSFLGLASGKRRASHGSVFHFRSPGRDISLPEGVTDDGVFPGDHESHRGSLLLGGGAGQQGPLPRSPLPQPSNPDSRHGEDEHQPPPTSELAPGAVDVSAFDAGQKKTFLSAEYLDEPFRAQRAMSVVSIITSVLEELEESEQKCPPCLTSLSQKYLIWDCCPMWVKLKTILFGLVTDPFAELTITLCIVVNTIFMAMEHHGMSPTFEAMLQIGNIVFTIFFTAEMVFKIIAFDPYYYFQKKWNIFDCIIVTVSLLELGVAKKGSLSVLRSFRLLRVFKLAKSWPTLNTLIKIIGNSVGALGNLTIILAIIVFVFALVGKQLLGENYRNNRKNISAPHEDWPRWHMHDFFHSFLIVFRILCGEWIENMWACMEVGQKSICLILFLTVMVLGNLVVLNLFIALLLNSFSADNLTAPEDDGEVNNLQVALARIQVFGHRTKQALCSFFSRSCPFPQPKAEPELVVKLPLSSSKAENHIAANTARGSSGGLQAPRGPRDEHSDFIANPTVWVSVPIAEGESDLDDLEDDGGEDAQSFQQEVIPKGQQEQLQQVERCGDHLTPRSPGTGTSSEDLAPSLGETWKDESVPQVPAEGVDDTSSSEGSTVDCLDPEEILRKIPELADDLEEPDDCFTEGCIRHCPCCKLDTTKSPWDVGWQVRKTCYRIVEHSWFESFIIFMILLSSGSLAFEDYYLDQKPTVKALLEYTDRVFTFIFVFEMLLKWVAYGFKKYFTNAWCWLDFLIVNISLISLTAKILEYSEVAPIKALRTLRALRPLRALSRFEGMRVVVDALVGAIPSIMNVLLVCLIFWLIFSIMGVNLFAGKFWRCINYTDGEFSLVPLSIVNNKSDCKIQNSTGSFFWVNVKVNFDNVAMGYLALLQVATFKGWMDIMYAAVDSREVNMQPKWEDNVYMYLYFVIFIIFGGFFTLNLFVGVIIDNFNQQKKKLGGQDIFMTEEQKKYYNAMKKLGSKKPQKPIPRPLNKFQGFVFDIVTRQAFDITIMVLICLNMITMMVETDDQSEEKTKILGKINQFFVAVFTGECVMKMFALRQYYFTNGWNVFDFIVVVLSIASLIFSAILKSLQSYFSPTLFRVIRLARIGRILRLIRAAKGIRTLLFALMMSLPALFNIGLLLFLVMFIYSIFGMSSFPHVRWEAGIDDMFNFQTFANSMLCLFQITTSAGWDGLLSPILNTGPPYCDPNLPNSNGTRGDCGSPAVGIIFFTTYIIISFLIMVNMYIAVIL

NC(=O)c1cccc(NC(=O)c2cc(Cl)c(Cl)cc2Oc2ccc(F)cc2)c1 [Compound 268, N-(3-carbamoylphenyl)-4,5-dichloro-2-(4-fluorophenoxy)benzamide] was tested, and the IC50 was 14 nM.
Work on COc1cc(Cl)ccc1Oc1ccc(C(F)(F)F)cc1C(=O)Nc1cccc(C(N)=O)c1 [Compound 286, N-(3-carbamoylphenyl)-2-(4-chloro-2-methoxyphenoxy)-5-(trifluoromethyl)benzamide] yielded an IC50 of 20 nM.
Compound NC(=O)c1cccc(NC(=O)c2cc(C(F)(F)F)ccc2Oc2ccccc2OC(F)F)c1 [Compound 285, N-(3-carbamoylphenyl)-2-(2-(difluoromethoxy)phenoxy)-5-(trifluoromethyl)benzamide] has an IC50 of 72 nM.
COc1cc(F)ccc1Oc1ccc(C(F)(F)F)cc1C(=O)Nc1cccc(C(N)=O)c1 [Compound 288, N-(3-carbamoylphenyl)-2-(4-fluoro-2-methoxyphenoxy)-5-(trifluoromethyl)benzamide] showed an IC50 of 34 nM.
With COc1ccc(Oc2cc(C(F)(F)C(F)(F)F)ccc2C(=O)Nc2cccc(C(N)=O)c2)c(Cl)c1 [Compound 251, N-(3-carbamoylphenyl)-2-(2-chloro-4-methoxyphenoxy)-4-(1,1,2,2,2-pentafluoroethyl)benzamide] the IC50 was 91 nM.
COc1cc(Cl)ccc1Oc1cc(C(F)(F)F)ccc1C(=O)Nc1cccc(C(N)=O)c1 [Compound 302, N-(3-carbamoylphenyl)-2-[4-chloro-2-(methoxy)phenoxy]-4-(trifluoromethyl)benzamide] gave an IC50 of 26 nM.
Work on COc1ccc(Oc2cc(Cl)c(Cl)cc2C(=O)Nc2cccc(C(N)=O)c2)c(OC)c1 [Compound 269, N-(3-carbamoylphenyl)-4,5-dichloro-2-(2,4-dimethoxyphenoxy)benzamide] yielded an IC50 of 9 nM.
CC(C)Oc1ccccc1Oc1ccc(C(F)(F)F)cc1C(=O)Nc1cccc(C(N)=O)c1 [Compound 282, N-(3-carbamoylphenyl)-2-(2-isopropoxyphenoxy)-5-(trifluoromethyl)benzamide] was tested, and the IC50 was 130 nM.
Compound NC(=O)c1ccc(NC(=O)c2c(Oc3ccc(F)cc3Cl)cccc2C(F)(F)F)cn1 [Compound 256, 5-[[2-(2-chloro-4-fluoro-phenoxy)-6-(trifluoromethyl)benzoyl]amino]pyridine-2-carboxamide] has an IC50 of 550 nM.
COc1ccc(Oc2ccc(C(F)(F)F)cc2C(=O)Nc2cccc(C(N)=O)c2)c(OC)c1 [Compound 281, N-(3-carbamoylphenyl)-2-(2,4-dimethoxyphenoxy)-5-(trifluoromethyl)benzamide] gave an IC50 of 39 nM.
